Results from patent US5447915A, “Terminally blocked antiviral peptides” (priority 1992, dated 1995).
Non-standard residues stand in square brackets, D forms with d. Residues, ends and D or L forms follow the SMILES beside them. *: point of attachment. OBn = c1ccc(CO*)cc1

Assays:
[1] = target: T1, human immunodeficiency virus (HIV-1) glycoprotein gp120 (Human immunodeficiency virus type 1 group M subtype B, UniProt P03375); type: binding; details: HSBCD4-M.23 cells; for inhibition of gp120 binding to CD4 (corrected mean fluorescence of CD4-expressing cells): gp120 preincubated with peptide 1 hour 37° C., about 50 μM to 900 μM
T1 construct: a solution of gp120 (20 μg/ml) (synthesized in vitro from baculovirus and obtained from MicroGeneSys); purchased MicroGeneSys, West Haven, Conn; host or cells: gp120 from baculovirus expression; CD4 on HSBCD4-M.23 cells (HSB-2 clone transfected with CD4 cDNA)
Description: The peptides prepared as described in Example 1 were characterized as to their ability to bind to the human immunodeficiency virus (HIV-1) glycoprotein gp120. This ability was assayed on the basis of the peptides ability to inhibit binding of gp120 to the human CD4 protein.
On the day of the assay the peptides were diluted 10-fold in phosphate buffered saline (PBS) and 2-fold serial dilutions made into PBS previously adjusted to the same DMSO concentration (10%). 25 μl each of each peptide solution and a solution of gp120 (20 μg/ml) (synthesized in vitro from baculovirus and obtained from MicroGeneSys, West Haven, Conn.) were combined and incubated at 37° C. for 1 hour. A total of 3-5×10^5 HSBCD4-M.23 cells [derived from a clone of the pre-T cell leukemia line HSB-2 (obtained from the American Type Culture Collection (ATCC), Rockville, Md.) which expresses human CD4 as a result of transfaction of CD4 cDNA sequences; Diamond et al., Proc. Natl. Acad. Sci. 87: xxxx (1990)] were pelleted in the walls of a 96-well V-bottom microtiter plate, resuspended with the preincubated gp 120-peptide mixture and allowed to incubate at 4° C. for 1 hour. The cells were then pelleted and resuspended in 50μl of a solution containing rabbit anti-gp120 antibody (diluted 1:400 in PBS; MicroGeneSys, West Haven, Conn.) and incubated at 4° C. for 30 min. The cells were again pelleted, washed with 100 μl PBS and resuspended in 50μl of a solution containing fluorescein isothiocyanate (FITC)-conjugated goat anti-rabbit antibody (diluted 1:20; Tago) and incubated at 4° C. for 30 min. The cells were pelleted and washed as before, and resuspended in 100 μl of a solution containing propidium iodine at a concentration of 25 μg/ml and transferred to tubes containing 400 μl PBS for flow cytometric analysis on an Epics V (Coulter) for FAtScan (Betton-Dickinson,Mountainview, Calif.). Cells were gated on propidium iodide to exclude dead cells. Green fluorescence was collected on the linear amplifier and the mean fluorescence calculated.

[2] = system: conjugate formation between HBSCD4-M.23 cells and Daudi cells; details: peptide 100 μg/ml, gp120 20 μg/ml
Description: Conjugate formation was assayed using HBSCD4-M.23 cells and cells from the human MHC-expressing cell line Daudi (available from ATCC). The HBSCD4-M.23 cells were labeled with 0.5 μg/ml sulfofluorescein diacetate (Molecular Probes, Eugene, Oreg.) and the Daudi cells were labeled with 40 ng/ml hydroethidine (Polysciences, Warrington, Pa.) and mixed at a 1:2 ratio (HBSCD4-M.23:Daudi) at a total concentration of 1×10^6 cells/mi. Cells were then incubated in 30 μl RPMI 1640 media at 37° C. for at least 90 minutes in the presence or absence of CPF(DD) or CPF(δF) (at concentrations of 100 μg/ml) and gp120 (20 μg/ml). At the end of the incubation, the cells were gently resuspended to preserve conjugates and scored by fluorescence microscopy. Positive conjugates were scored as at least two cells displaying one fluorescent color bound to at least one cell displaying the other fluorescent color. Samples were analyzed blinded as to their identity, and in duplicate, and at least three counts of 100 fluorescein-labeled cells were performed for each sample. The percentage of conjugates scored was calculated as the total number of conjugates scored divided by the total number of conjugates plus free CD4-expressing (fluorescein-labeled) cells.

[3] = system: IL-2 production in 16CD4-9 T cell hybridoma cells; details: peptide 200 μg/ml, gp120 5-10 μg/ml, diluted 20-fold and reconcentrated by ultrafiltration
Description: These gp120 solutions were then diluted 20-fold with PBS and the gp120 reconcentrated by ultrafiltration as described in Example 2. The recovered gp120 solutions were then combined with 1×10^5 16CD4-9 T cell hybridoma cells (available from ATCC) and 2×10^5 Daudi cells and cultured overnight at 37° C. IL-2 was detected in the culture supernatants using a cell proliferation assay [Watson, J. Exp. Med. 150: 1510-1515 (1979)], with the modification that proliferation was detected colorimetrically as the cleavage of 3-(4,5-dimethyl-thiazol)-2,6-diphenyl-tetrazolium bromide (MTT) [Finberg et al., Science 249: 287-291 (1990)].

[4] = system: HIV-1; details: peptide 80 μg/ml; after 4 days of co-cultivation for CPF(DD)
Description: PBL-derived human T cells, infected with HIV-1, were washed extensively with RPMI 1640 media and then 10^4 infected T cells were added to 5×10^5 uninfected H9 cells in the presence or absence of CPF(DD) or CPF(δF) at concentrations of 80 μg/ml. Cells were co-cultivated and maintained at H9 cell densities of 5×10^5 cells/ml and tested after 2, .varies.and 6 days of co-cultivation. The extent of infection of H9 cells was determined by p24 antigen ELISA assay, performed 48 hours after washing the T-cell-H-9 cell mixture free of virus.

[5] = system: HIV; assay: Inhibition of HIV infection of CD4-expressing human peripheral blood lymphocytes, p24 antigen; type: cell-based; details: peptide 160 μg/ml; human T cells from PBL
Description: These cells were obtained by depleting peripheral blood mononuclear cells isolated by passage through nylon wool [Finberg et al., Science 249: 287-291 (1990)]using antibodies specific for CD8 (OKTS, obtained from ATCC) and CD16 (B73.1, a gift of G. Trinchieri) followed by treatment with antibody-coated magnetic beads [Haregerwoin et al., Nature 340: 309 (1989)]. This treatment enriches the cell population for CD4-expressing human peripheral T cells. Virus was incubated for 1 hour at 37° C. with varying concentrations of CPF(DD), or with CPF(6F) at a concentration of 160 μg/ml. The treated virus preparation was then incubated with cells for 1 hour at 37° C. Cells were washed twice and maintained in RPMI 1640/10% FCS supplemented with interleukin 2 [10 units/ml, Collaborative Research]. Cells were maintained and assayed for p24 production as described above.

O=C(N[C@H](Cc1ccccc1)C(=O)OCc1ccccc1)[C@H]1CCCN1 [(DD) prolylphenylalanylbenzylester] (H-[dP]-[dF]-OBn)
inhibition of gp120 binding to CD4 (corrected mean fluorescence of CD4-expressing cells) [1]: unable to inhibit gp120 binding

COC(=O)C(=O)N1CCC[C@@H]1C(=O)OCc1ccccc1 [CPF(δF), N-carbomethoxylcarbonyl-D-Pro-OBn]
conjugate formation in presence of gp120 preincubated with peptide [2]: does not restrict gp120-mediated inhibition of conjugate formation
IL-2 production in presence of gp120 preincubated with peptide [3]: slight increase in the amount of IL-2
p24 antigen in supernatant after co-cultivation of infected T cells and uninfected H9 cells [4]: no different from those detected in co-cultures of T cells and H9 cells incubated without peptides
kinetics and maximum production of p24 [5]: does not effect either the kinetics or the maximum production of p24
inhibition of gp120 binding to CD4 (corrected mean fluorescence of CD4-expressing cells) [1]: does not inhibit gp120 binding to CD4-expressing human cells

COC(=O)C(=O)N[C@H](Cc1ccccc1)C(=O)OCc1ccccc1 [CPF(δP), N-carbomethoxylcarbonyl-D-Phe-OBn]
inhibition of gp120 binding to CD4 (corrected mean fluorescence of CD4-expressing cells) [1]: does not inhibit gp120 binding to CD4-expressing human cells

N-carbomethoxylcarbonyl-D-Pro-D-Ala-OBn [CPF(F→A)]
concentration giving 50% inhibition of gp120 binding, fold higher than for CPF(LL) ([1]; in comparison with CPF(LL)): 2-5 fold
